{"source": "paper PMC10922772", "about": "(ACS infectious diseases, 2024)", "key": {"SARS-CoV-2 Mpro": {"biological_target": "SARS-CoV-2 Mpro (Severe acute respiratory syndrome coronavirus 2, UniProt P0DTD1)", "assay": "biochemical", "conditions": "for IC50: IC50, enzyme 100 nM, substrate 20 μM, 10 min preincubation, pH 6.5; for activity reduction vs. compound 30: compared with more active diastereomer of 30; for inhibition at 20 µM: read-out: % inhibition at 20 μM"}, "[1]": {"tested_on": "SARS-CoV-2 (Washington strain, 2020)", "assay": "microbe, parasite or virus in culture", "assay_type": "cell-based", "conditions": "for EC68 (half-log reduction of virus titer): 0.01 MOI"}, "[2]": {"conditions": "Severe acute respiratory syndrome coronavirus 2, Vero, read-out: inhibition of SARS-CoV-2 replication"}}}
{"smiles": "CC(C)(C)c1ccc(N(C(=O)C2CO2)C(C(=O)NC2CCCCC2)c2cccnc2)cc1", "note": "[(R, S)- and (S, R)-30, N-(4-(tert-Butyl)phenyl)-N-(2-(cyclohexylamino)-2-oxo-1-(pyridin-3-yl)ethyl)oxirane-2-carboxamide]", "values": [{"measurement": "activity difference between the two separated diastereomers", "setting": "SARS-CoV-2 Mpro", "value": "> 10", "unit": "fold"}, {"measurement": "IC50", "setting": "SARS-CoV-2 Mpro", "value": "760 ± 180", "unit": "nM"}, {"measurement": "EC90", "setting": "[1]; Severe acute respiratory syndrome coronavirus 2, Vero, 48 h", "value": 15000, "unit": "nM"}, {"measurement": "EC68 (half-log reduction of virus titer)", "setting": "[1]; Vero cells, 48 h", "value": 5, "unit": "μM"}]}
{"smiles": "CC1OC1C(=O)N(c1ccc(C(C)(C)C)cc1)C(C(=O)NC1CCCCC1)c1cccnc1", "note": "[(R, S, R)- and (S, R, S)-35, N-(4-(tert-Butyl)phenyl)-N-(2-(cyclohexylamino)-2-oxo-1-(pyridin-3-yl)ethyl)-3-methyloxirane-2-carboxamide]", "values": [{"measurement": "activity difference between the two separated diastereomers", "setting": "SARS-CoV-2 Mpro", "value": "> 10", "unit": "fold"}, {"measurement": "IC50", "setting": "SARS-CoV-2 Mpro", "value": "1900 ± 210", "unit": "nM"}, {"measurement": "activity reduction vs. compound 30", "setting": "SARS-CoV-2 Mpro", "value": "≤ 3", "unit": "fold"}, {"measurement": "EC68 (half-log reduction of virus titer)", "setting": "[1]; Vero cells, 48 h", "value": 15, "unit": "μM"}]}
{"smiles": "CC(C)(C)NC(=O)C(c1cccnc1)N(C(=O)CCl)c1ccc(C(C)(C)C)cc1", "note": "(stereo not drawn) [Compound 13, N-(tert-Butyl)-2-(N-(4-(tert-butyl)phenyl)-2-chloroacetamido)-2-(pyridin-3-yl)acetamide]", "values": [{"measurement": "IC50", "setting": "SARS-CoV-2 Mpro", "value": "600 ± 50", "unit": "nM"}, {"measurement": "inhibition at 3 µM", "setting": "[1]; [2]", "value": 68, "unit": "%"}, {"measurement": "inhibition at 5 µM", "setting": "[1]; [2]", "value": 97, "unit": "%"}, {"measurement": "EC68 (half-log reduction of virus titer)", "setting": "[1]; Vero cells, 48 h", "value": 3, "unit": "μM"}, {"measurement": "titer reduction", "setting": "[1]; at 3 μM, Vero cells", "value": 0.5, "unit": "log"}, {"measurement": "titer reduction", "setting": "[1]; at 5 μM, Vero cells", "value": 1.5, "unit": "log"}]}
{"smiles": "CC(C)(C)c1ccc(N(C(=O)C2OC2(C)C)C(C(=O)NC2CCCCC2)c2cccnc2)cc1", "note": "(stereo not drawn) [Compound 36, N-(4-(tert-Butyl)phenyl)-N-(2-(cyclohexylamino)-2-oxo-1-(pyridin-3-yl)ethyl)-3,3-dimethyloxirane-2-carboxamide]", "values": [{"measurement": "IC50", "setting": "SARS-CoV-2 Mpro", "value": "2500 ± 280", "unit": "nM"}, {"measurement": "activity reduction vs. compound 30", "setting": "SARS-CoV-2 Mpro", "value": "≤ 3", "unit": "fold"}, {"measurement": "antiviral activity (in words)", "setting": "[1]; at 15 μM, Vero cells", "value": "inactive"}]}
{"smiles": "CC(C)(C)NC(=O)C(c1cccnc1)N(C(=O)CCl)c1cccc(N)c1", "note": "(stereo not drawn) [Compound 21, N-(3-Aminophenyl)-N-(2-(tert-butylamino)-2-oxo-1-(pyridin-3-yl)ethyl)-2-chloroacetamide]", "values": [{"measurement": "inhibition at 20 µM", "setting": "SARS-CoV-2 Mpro", "value": 33, "unit": "%"}]}
{"smiles": "CC(C)(C)c1ccc(N(C(=O)CCl)C(C(=O)NCc2ccccc2)c2cccnc2)cc1", "note": "(stereo not drawn) [Compound 23, N-Benzyl-2-(N-(4-(tert-butyl)phenyl)-2-chloroacetamido)-2-(pyridin-3-yl)acetamide]", "values": [{"measurement": "inhibition at 20 µM", "setting": "SARS-CoV-2 Mpro", "value": 41, "unit": "%"}]}
{"smiles": "CC1(C(=O)N(c2ccc(C(C)(C)C)cc2)C(C(=O)NC2CCCCC2)c2cccnc2)CO1", "note": "(stereo not drawn) [Compound 37, N-(4-(tert-Butyl)phenyl)-N-(2-(cyclohexylamino)-2-oxo-1-(pyridin-3-yl)ethyl)-2-methyloxirane-2-carboxamide]", "values": [{"measurement": "activity reduction vs. compound 30", "setting": "SARS-CoV-2 Mpro", "value": "> 25", "unit": "fold"}, {"measurement": "inhibition at 20 µM", "setting": "SARS-CoV-2 Mpro", "value": 28, "unit": "%"}]}
{"smiles": "O=C(CCl)Nc1cccc(N(C(=O)c2ccco2)C(C(=O)NCc2ccccc2)c2cccnc2)c1", "note": "(stereo not drawn) [Compound 8, N-(2-(Benzylamino)-2-oxo-1-(pyridin-3-yl)ethyl)-N-(3-(2-chloroacetamido)phenyl)furan-2-carboxamide]", "values": [{"measurement": "IC50", "setting": "SARS-CoV-2 Mpro", "value": "~20000", "unit": "nM"}, {"measurement": "inhibition at 20 µM", "setting": "SARS-CoV-2 Mpro", "value": 47, "unit": "%"}]}
{"smiles": "CC(C)(C)NC(=O)C(c1cccnc1)N(C(=O)C1CO1)c1ccc(C(C)(C)C)cc1", "note": "[(R, R)- and (S, S)-38, N-(4-(tert-Butyl)phenyl)-N-(2-(tert-butylamino)-2-oxo-1-(pyridin-3-yl)ethyl)oxirane-2-carboxamide]", "values": [{"measurement": "inhibition at 20 µM", "setting": "SARS-CoV-2 Mpro", "value": 21, "unit": "%"}]}
